Assay results taken from paper PMC10331583, “Control of fibrosis with enhanced safety via asymmetric inhibition of prolyl‐tRNA synthetase 1” (EMBO Molecular Medicine, 2023).
Several values for one entry are separate records, joined by “and”; a condition that tells them apart may be missing. Equal entries are not always repeated. Where two headings read alike, the source gives them in different places.

Key:
WI‐26 VA4 cells [1] = assay: CellTiter‐Glo assay (cytotoxicity); conditions: for activity at 0.0001 µM / activity at 0.0003 µM / activity at 0.001 µM / activity at 0.003 µM / activity at 0.01 µM / activity at 0.03 µM / activity at 0.1 µM / activity at 0.3 µM / activity at 1 µM / activity at 3 µM / activity at 10 µM / activity at 30 µM / activity at 100 µM: Homo sapiens
[2] = CellTiter‐Glo assay (cytotoxicity); conditions: human, WI-26 VA4 cells
WI‐26 VA4 cells [3] = assay: Collagen ELISA (secreted pro‐collagen I)
Experimental: WI‐26 VA4 cells were seeded at 3.5 × 10^4 cells/well on 24 well plates. After 24 h, the cells were starved of serum for 6 h. Then, the cells were incubated with the indicated concentrations of compounds in the presence of TGF‐β (2 ng/ml) (R&D systems, 240‐B‐002) for 72 h. The supernatant of the cells was collected and centrifuged at 500 g for 5 min to remove cell debris. Then, the level of pro‐collagen I in the supernatant was determined using Human Pro‐collagen I alpha 1 DuoSet ELISA (R&D systems, DY6220‐05) and DuoSet ELISA Ancillary Reagent Kit 2 (R&D systems, DY008) following the manufacturer's instructions.

WI‐26 VA4 cells [4] = assay: Puromycin incorporation assay; type: cell-based, human
Procedure, shortened: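 WI‐26 VA4 cell lysates prepared in carbonate-bicarbonate buffer with protease inhibitor; 400 ng protein coated on ELISA plates 18 h at 4°C. Puromycin incorporated into proteins detected by antibody ELISA, absorbance 450 nm with 620 nm reference; outlier values excluded based on replicates and adjacent concentrations.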

[5] = log(inhibitor) vs. response, variable slope (four parameters), concentration in nM

What does the source list for `Cc1c(Br)cnc2c1ncn2CC(=O)C[C@H]1NCCC[C@@H]1O` [DWN11761]?
activity at 0.0001 µM (WI‐26 VA4 cells [1]; WI26VA4, read-out: CellTiter-Glo % of control, 0.1 nM, Experiment #1, replicates): 101%; activity at 0.0001 µM (WI‐26 VA4 cells [1]; WI26VA4, read-out: CellTiter-Glo % of control, 0.1 nM, Experiment #2, replicates): 95.4%; activity at 0.0003 µM (WI‐26 VA4 cells [1]; WI26VA4, read-out: CellTiter-Glo % of control, 0.3 nM, Experiment #1, replicates): 110%; activity at 0.0003 µM (WI‐26 VA4 cells [1]; WI26VA4, read-out: CellTiter-Glo % of control, 0.3 nM, Experiment #2, replicates): 103%; activity at 0.001 µM (WI‐26 VA4 cells [1]; WI26VA4, read-out: CellTiter-Glo % of control, 1 nM, Experiment #1, replicates): 106%; activity at 0.001 µM (WI‐26 VA4 cells [1]; WI26VA4, read-out: CellTiter-Glo % of control, 1 nM, Experiment #2, replicates): 93.8%; activity at 0.003 µM (WI‐26 VA4 cells [1]; WI26VA4, read-out: CellTiter-Glo % of control, 3 nM, Experiment #1, replicates): 100%; activity at 0.01 µM (WI‐26 VA4 cells [1]; WI26VA4, read-out: CellTiter-Glo % of control, 10 nM, Experiment #1, replicates): 104%; activity at 0.03 µM (WI‐26 VA4 cells [1]; WI26VA4, read-out: CellTiter-Glo % of control, 30 nM, Experiment #1, replicates): 94.7%; activity at 0.1 µM (WI‐26 VA4 cells [1]; WI26VA4, read-out: CellTiter-Glo % of control, 100 nM, Experiment #1, replicates): 72.9%; activity at 0.3 µM (WI‐26 VA4 cells [1]; WI26VA4, read-out: CellTiter-Glo % of control, 300 nM, Experiment #1, replicates): 56.9%; activity at 1 µM (WI‐26 VA4 cells [1]; WI26VA4, read-out: CellTiter-Glo % of control, 1000 nM, Experiment #1, replicates): 24.9%; activity at 1 µM (WI‐26 VA4 cells [1]; WI26VA4, read-out: CellTiter-Glo % of control, 1000 nM, Experiment #2, replicates): 12.4%; activity at 3 µM (WI‐26 VA4 cells [1]; WI26VA4, read-out: CellTiter-Glo % of control, 3000 nM, Experiment #1, replicates): 39.6%; activity at 3 µM (WI‐26 VA4 cells [1]; WI26VA4, read-out: CellTiter-Glo % of control, 3000 nM, Experiment #2, replicates): 30.3%; activity at 10 µM (WI‐26 VA4 cells [1]; WI26VA4, read-out: CellTiter-Glo % of control, 10000 nM, Experiment #1, replicates): 14.4%; activity at 10 µM (WI‐26 VA4 cells [1]; WI26VA4, read-out: CellTiter-Glo % of control, 10000 nM, Experiment #2, replicates): 8.9%; activity at 30 µM (WI‐26 VA4 cells [1]; WI26VA4, read-out: CellTiter-Glo % of control, 30000 nM, Experiment #1, replicates): 6.42%; activity at 30 µM (WI‐26 VA4 cells [1]; WI26VA4, read-out: CellTiter-Glo % of control, 30000 nM, Experiment #2, replicates): 4.58%; activity at 100 µM (WI‐26 VA4 cells [1]; WI26VA4, read-out: CellTiter-Glo % of control, 100000 nM, Experiment #1, replicates): 2.45%; activity at 100 µM (WI‐26 VA4 cells [1]; WI26VA4, read-out: CellTiter-Glo % of control, 100000 nM, Experiment #2, replicates): 1.52%; activity at 0.0001 µM (WI‐26 VA4 cells [1]; WI26VA4, read-out: CellTiter-Glo % of control, average, 0.1 nM, average): 102%; activity at 0.0003 µM (WI‐26 VA4 cells [1]; WI26VA4, read-out: CellTiter-Glo % of control, average, 0.3 nM, average): 105%; activity at 0.001 µM (WI‐26 VA4 cells [1]; WI26VA4, read-out: CellTiter-Glo % of control, average, 1 nM, average): 96.9%; activity at 0.003 µM (WI‐26 VA4 cells [1]; WI26VA4, read-out: CellTiter-Glo % of control, average, 3 nM, average): 82.5%; activity at 0.01 µM (WI‐26 VA4 cells [1]; WI26VA4, read-out: CellTiter-Glo % of control, average, 10 nM, average): 91.2%; activity at 0.03 µM (WI‐26 VA4 cells [1]; WI26VA4, read-out: CellTiter-Glo % of control, average, 30 nM, average): 86.4%; activity at 0.1 µM (WI‐26 VA4 cells [1]; WI26VA4, read-out: CellTiter-Glo % of control, average, 100 nM, average): 66.3%; activity at 0.3 µM (WI‐26 VA4 cells [1]; WI26VA4, read-out: CellTiter-Glo % of control, average, 300 nM, average): 51.8%; activity at 1 µM (WI‐26 VA4 cells [1]; WI26VA4, read-out: CellTiter-Glo % of control, average, 1000 nM, average): 20.8%; activity at 3 µM (WI‐26 VA4 cells [1]; WI26VA4, read-out: CellTiter-Glo % of control, average, 3000 nM, average): 32.6%; activity at 10 µM (WI‐26 VA4 cells [1]; WI26VA4, read-out: CellTiter-Glo % of control, average, 10000 nM, average): 11.2%; activity at 30 µM (WI‐26 VA4 cells [1]; WI26VA4, read-out: CellTiter-Glo % of control, average, 30000 nM, average): 5.72%; activity at 100 µM (WI‐26 VA4 cells [1]; WI26VA4, read-out: CellTiter-Glo % of control, average, 100000 nM, average): 1.91%; CellTiter-Glo LogIC50 (best-fit value) (WI‐26 VA4 cells [1]; [5]): 2.468; CC50 at 72 h [2]: 294 nM; Collagen, % of control (single replicates per experiment) (WI‐26 VA4 cells [3]; 1 nM, 0.001 µM): 99.09 % of control and 89.14 % of control and 102.78 % of control and 94.15 % of control and 107.84 % of control; Collagen, % of control (single replicates per experiment) (WI‐26 VA4 cells [3]; 3 nM, 0.003 µM): 120.43 % of control and 98.90 % of control and 84.42 % of control and 95.43 % of control and 97.10 % of control and 104.96 % of control; Collagen, % of control (single replicates per experiment) (WI‐26 VA4 cells [3]; 30 nM, 0.03 µM): 79.96 % of control and 82.37 % of control; CC50/collagen IC50 (WI‐26 VA4 cells [3]; Fig 5E): 5.47; IC50 (WI‐26 VA4 cells [3]; Homo sapiens, WI26VA4, read-out: Collagen IC50 (best-fit value), log(inhibitor) vs. response, variable slope (four parameters) (converted)): 53.7 nM; activity at 0.001 µM (WI‐26 VA4 cells [3]; Homo sapiens, WI26VA4, read-out: Collagen, % of control (single replicates per experiment), 1 nM): 109%; activity at 0.1 µM (WI‐26 VA4 cells [3]; Homo sapiens, WI26VA4, read-out: Collagen, % of control (single replicates per experiment), 100 nM): 20.2%; activity at 0.3 µM (WI‐26 VA4 cells [3]; Homo sapiens, WI26VA4, read-out: Collagen, % of control (single replicates per experiment), 300 nM): 3.63%; activity at 0.001 µM (WI‐26 VA4 cells [3]; Homo sapiens, WI26VA4, read-out: Collagen, % of control, average, 1 nM, average): 100%; activity at 0.003 µM (WI‐26 VA4 cells [3]; Homo sapiens, WI26VA4, read-out: Collagen, % of control, average, 3 nM, average): 100%; activity at 0.01 µM (WI‐26 VA4 cells [3]; Homo sapiens, WI26VA4, read-out: Collagen, % of control, average, 10 nM, average): 101%; activity at 0.03 µM (WI‐26 VA4 cells [3]; Homo sapiens, WI26VA4, read-out: Collagen, % of control, average, 30 nM, average): 80.4%; activity at 0.1 µM (WI‐26 VA4 cells [3]; Homo sapiens, WI26VA4, read-out: Collagen, % of control, average, 100 nM, average): 20.6%; activity at 0.3 µM (WI‐26 VA4 cells [3]; Homo sapiens, WI26VA4, read-out: Collagen, % of control, average, 300 nM, average): 3.18%; activity at 1 µM (WI‐26 VA4 cells [3]; Homo sapiens, WI26VA4, read-out: Collagen, % of control, average, 1000 nM, average): 1.53%; activity at 3 µM (WI‐26 VA4 cells [3]; Homo sapiens, WI26VA4, read-out: Collagen, % of control, average, 3000 nM, average): 1.46%; Collagen HillSlope (best-fit value) (WI‐26 VA4 cells [3]; log(inhibitor) vs. response, variable slope (four parameters)): -2.337; Collagen LogIC50 (best-fit value) (WI‐26 VA4 cells [3]; [5]): 1.73; Relative (CC50)/(collagen IC50) (WI‐26 VA4 cells [3]; relative to HF, Fig 5E): 1.63; Puromycin, % of control, single replicate (WI‐26 VA4 cells [4]; 3 nM, 0.003 µM): 104.76 % of control and 100.60 % of control and 105.06 % of control and 105.49 % of control and 105.21 % of control and 111.96 % of control and 104.24 % of control; Puromycin, % of control, single replicate (WI‐26 VA4 cells [4]; 10 nM, 0.01 µM): 99.99 % of control and 99.81 % of control and 108.66 % of control and 104.16 % of control and 106.55 % of control and 105.60 % of control and 106.56 % of control; Puromycin, % of control, single replicate (WI‐26 VA4 cells [4]; 30 nM, 0.03 µM): 101.89 % of control and 99.32 % of control and 110.82 % of control and 110.04 % of control and 108.90 % of control and 103.15 % of control and 106.42 % of control; Puromycin, % of control, single replicate (WI‐26 VA4 cells [4]; 100 nM, 0.1 µM): 112.55 % of control and 117.55 % of control and 127.48 % of control and 125.28 % of control and 125.52 % of control and 127.16 % of control and 126.25 % of control; Puromycin, % of control, single replicate (WI‐26 VA4 cells [4]; 300 nM, 0.3 µM): 109.98 % of control and 112.11 % of control and 119.25 % of control and 120.23 % of control and 124.85 % of control and 125.66 % of control and 106.56 % of control
